Earlier results in patent publication US8071772B2, “Spirolactam bicyclic CGRP receptor antagonists” (Merck Sharp & Dohme Corp., priority 2005, dated 2011).
No end group written: not given here.

Experiments:
facial blood flow [1] = settings: marmoset; Doods et al. 2000
[2] = system: diameter of the middle meningeal artery; settings: rat, prior administration; Williamson et al. 1997
facial blood flow [3] = settings: rat; Escott et al. 1995

| Molecule | effect on increase in facial blood flow (facial blood flow [1]) | effect on increase of middle meningeal artery diameter [2] | effect on increased facial blood flow (facial blood flow [3]) |
| --- | --- | --- | --- |
| NCCCC[C@H](NC(=O)[C@@H](Cc1cc(Br)c(O)c(Br)c1)NC(=O)N1CCC(N2Cc3ccccc3NC2=O)CC1)C(=O)N1CCN(c2ccncc2)CC1 [BIBN4096BS] | blocked |  |  |
| CGRP(8-37): a peptide CGRP antagonist; fragment of CGRP that lacks seven N-terminal amino acid residues (VTHRLAGLLSRSGGVVKNNFVPTNVGSKAF; ends and bridges not checked; UniProt P06881 90-119, looked up, fragment) |  | blocked | inhibited |
